What was measured:
[1] = Stability test in minimal essential medium; format: physicochemical
cell viability = assay: MTT-based cell viability under normoxic and hypoxic conditions; details: 72 h treatment
Method: (§1) Cells were plated (2x10^3 cells/well) in 96-well plates and allowed to recover for 24 h. Subsequently, the dissolved drugs were added. After 72 h exposure, the proportion of viable cells was determined by MTT assay following the manufacturer's recommendations (EZ4U, Biomedica, Vienna, Austria). Cytotoxicity was expressed as IC50 values calculated from full dose-response curves using Graph Pad Prism software.
(§2) Cells were plated in 96- or 6-well plates, respectively, in an HERA cell 150i (Thermo Scientific) with at 1% O2/5% CO2 level for indicated time points (72 h and 4 h for MTT assays and protein isolation, respectively) before analysis/harvesting.
As a first step, the anticancer activity of the novel Co(III) complex was tested in comparison to the metal-free ligand under normoxic and hypoxic conditions as shown in Figures 5 and 6A after 72 h treatment cell viability was measured using a MTT-based system. Values given are means ± standard deviation (SD) of one representative experiment performed in triplicates (Statistical analysis: t-test; ***p< 0.001 ^a: difference between L2 and 1a; ^b: difference between 1a normoxia and 1a hypoxia).

EGFR = assay: Western blot of EGFR inhibition in A431 and Calu3 cells under normoxia and hypoxia; format: cell-based; details: 4 h treatment, EGF 50 ng/ml for 15 min
Method: as §2
Proteins were isolated, resolved by SDS/PAGE, and transferred onto a polyvinylidenedifluoride membrane for Western blotting by routine methods. The following antibodies were used: EGFR, pEGFR (Tyr1068), ERK1/2 (p44/42 MAPK), and pERK (Thr202/Tyr204) (all polyclonal rabbit - Cell Signaling Technology, Beverly, MA, USA). β-actin was monoclonal mouse AC-15 (Sigma). All primary antibodies were used in 1:1000 dilutions. Additionally, horseradish peroxidase-labelled secondary antibodies from Santa Cruz Biotechnology were used at working dilutions of 1:10000.

A431 = assay: MTT cytotoxicity assay, A431 cells; format: cell-based; details: Homo sapiens, A-431; MTT assay after 72 h treatment; wild-type EGFR-overexpressing erlotinib-sensitive A431; read-out: Inhibition of Cell Growth (IC50 µM) A431
Method: Cell cultures were periodically checked for Mycoplasma contamination.
Subsequently, the dissolved drugs were added. […] Cytotoxicity was expressed as IC50 values calculated from full dose-response curves using Graph Pad Prism software.

H1975 = assay: MTT cytotoxicity assay, H1975 cells; format: cell-based; details: Homo sapiens, NCI-H1975; MTT assay after 72 h treatment; H1975 with resistance-conferring EGFR mutation T790M; read-out: Inhibition of Cell Growth (IC50 µM) H1975
Method: The human NSCLC cell lines A431 (wt EGFR-overexpressing and erlotinib-sensitive) and H1975 (EGFR mutation at L858R as well as T790M and erlotinib-resistant) were purchased from American Type Culture Collection (ATCC), Rockville, MD, USA and cultivated unless otherwise indicated in humidified incubators (37°C, 21% O2, 5% CO2) in RPMI 1640 medium containing 10% fetal calf serum (PAA, Linz Austria). Cell cultures were periodically checked for Mycoplasma contamination.
as §1
(§3) As a first step MTT assays (after 72 h treatment) performed in wild-type EGFR-overexpressing erlotinib-sensitive A431 and Calu3 cells as well as in H1975 cells, which harbour a resistance-conferring EGFR mutation T790M (Table 1). […] Only in Calu3 cells activity in the low µM range was observed. In contrast, L2 containing the smallest chelating moiety had IC50 values in the low µM range in both erlotinib-responsive models. […] Table 1. Anticancer activity (IC50 values)

Calu3 = assay: MTT cytotoxicity assay, Calu3 cells; format: cell-based; details: Homo sapiens, Calu-3; MTT assay after 72 h treatment; wild-type EGFR-overexpressing erlotinib-sensitive Calu3; read-out: Inhibition of Cell Growth (IC50 µM) Calu3
Method: as §1, §3

EGFR signaling pathway = assay: Western blot of EGFR signaling (pERK, pEGFR) in EGF-stimulated cells; format: cell-based; details: EGF-stimulated cells (HCC827 per Fig. 3), 4 h drug incubation, Western blotting
A431 xenografts = assay: A431 xenograft tumour growth in SCID mice; format: in vivo; details: 5 mg/kg i.v. or 25 mg/kg i.p.; efficacy comparable to erlotinib, especially upon intraperitoneal application
Excerpt: (§4) Six- to 8-week-old female CB-17 scid/scid (SCID) mice were purchased from Harlan Laboratories (San Pietro al Natisone, Italy). The animals were kept in a pathogen-free environment and every procedure was done in a laminar airflow cabinet. The experiments were done according to the regulations of the Ethics Committee for the Care and Use of Laboratory Animals at the Medical University Vienna, The U.S. Public Health Service Policy on Human Care and Use of Laboratory Animals as well as the United Kingdom Coordinating Committee on Cancer Prevention Research's Guidelines for the Welfare of Animals in Experimental Neoplasia.
(§5) This is of interest, as Calu3 xenografts are characterized by a rather specific tumor histology, where small tumour islands are surrounded by murine fibroblasts. Consequently, in these xenografts a larger tumor volume might be necessary for the development of hypoxic conditions and, thus, activation of 1b.

Calu3 xenografts = assay: Calu3 xenograft tumour growth in SCID mice; format: in vivo; details: when a tumour size of more than 200 mm^2 was reached
Excerpt: as §4, §5

| SMILES | stable in minimal essential medium [1] | IC50 (A431) | IC50 (H1975) | IC50 (Calu3) | also measured |
| --- | --- | --- | --- | --- | --- |
| CC(=O)C=C(C)[O-].CC(=O)C=C(C)[O-].F[P-](F)(F)(F)(F)F.NCCNc1ccc2ncnc(Nc3cccc(Br)c3)c2c1.[Co+3] [Compound 1a, Bis(2,4-pentanedionato) N^6-(2-aminoethyl)-N^4-(3-bromophenyl) quinazoline-4,6-diamine cobalt(III) hexafluorophosphate] | at least 24 h |  |  |  | anticancer activity, hypoxia (cell viability; hypoxia (1% O2)): significantly increased; anticancer activity (cell viability), normoxic conditions (cell viability; normoxic conditions, up to the highest tested concentration of 25 µM): widely inactive; EGFR inhibitory potential, hypoxia (EGFR; hypoxia): potent activity similar to the metal-free ligand L2; EGFR inhibitory potential, normoxic conditions (EGFR; normoxic conditions): distinctly reduced |
| Cl.Cl.NCCNc1ccc2ncnc(Nc3cccc(Br)c3)c2c1 [Compound L2, N^6-(2-aminoethyl)-N^4-(3-bromophenyl)quinazoline-4,6-diamine dihydrochloride] |  | 9.15 ± 0.47 µM | 15.5 ± 2.18 µM | 2 ± 0.52 µM | inhibitory effects on ERK and EGFR phosphorylation levels (EGFR signaling pathway): most potent EGFR inhibitor with activity similar to erlotinib |
| Brc1cccc(Nc2ncnc3ccc(N=Cc4ccccn4)cc23)c1 [Compound L1, N^4-(3-bromophenyl)-N^6-(pyridin-2-ylmethylene) quinazoline-4,6-diamine] |  | > 25 µM | 20.4 ± 3.8 µM | 3.5 ± 0.08 µM |  |
| C#Cc1cccc(Nc2ncnc3cc(OCCOC)c(OCCOC)cc23)c1 [erlotinib, reference compound] |  |  | > 25 µM | 0.74 ± 0.02 µM |  |
| CC(=O)C=C(C)[O-].CC(=O)C=C(C)[O-].NCCNc1ccc2ncnc(Nc3cccc(Br)c3)c2c1.[Cl-].[Co+3] [Compound 1b, Bis(2,4-pentanedionato) N^6-(2-aminoethyl)-N^4-(3-bromophenyl) quinazoline-4,6-diamine cobalt(III) chloride] | at least 24 h |  |  |  | tumor growth of A431 xenografts (A431 xenografts): potently inhibited tumor growth; tumor growth of Calu3 xenografts (Calu3 xenografts): induced distinct tumor regression |
